{"source": "paper PMC6073756", "about": "“Allicin Bioavailability and Bioequivalence from Garlic Supplements and Garlic Foods” (Nutrients, 2018)", "key": {"[1]": {"experiment": "Allicin bioavailability or bioequivalence bioassay: 32-h breath allyl methyl sulfide (AMS) concentration curve after consumption", "assay_type": "in vivo, human", "conditions": "two tests, same person"}, "[2]": {"set-up": "method as in PMID 25681129", "conditions": "cited from earlier work"}, "[3]": {"set-up": "method as in doi:10.1055/s-2006-959976", "conditions": "added to whole blood; cited from earlier work"}, "[4]": {"conditions": "cited from earlier work"}}, "data": [{"compound": "C=CC[S+]([O-])C[C@H](N)C(=O)O", "note": "(mixture of isomers) [L(±)-alliin]", "values": [{"measurement": "Differences in Tmax, RF2, or RRF2 versus natural L(+)-alliin", "setting": "[1]", "result": "No significant differences"}]}, {"compound": "C=CCSCC(N)C(=O)O", "note": "(stereo not shown) [S-allyl-cysteine, S-allylcysteine]", "values": [{"measurement": "Administered dose accounted for among the urinary metabolites", "setting": "[2]", "result": 13, "unit": "%"}, {"measurement": "Dose in urine as SAC plus N-acetyl-SAC", "setting": "[2]", "result": 1, "unit": "%"}, {"measurement": "Dose in urine as alliin plus N-acetyl-alliin", "setting": "[2]", "result": 12, "unit": "%"}, {"measurement": "Unknown metabolites", "setting": "[2]", "result": 87, "unit": "%"}]}, {"compound": "C=CCS[S+]([O-])CC=C", "note": "(stereo not shown) [allicin, diallyl thiosulfinate]", "values": [{"measurement": "Half-life of metabolism to allyl mercaptan", "setting": "[3]", "result": "< 1", "unit": "min"}, {"measurement": "Share of the allicin consumed accounted for by breath AMS", "setting": "[4]", "result": "at least 90%"}]}]}
